Test results reported in patent publication US20240101548A1, “HYDROXAMATE COMPOUND, PREPARATION METHOD THEREFOR AND APPLICATION THEREOF” (SHENZHEN CHIPSCREEN BIOSCIENCES CO., LTD., priority 2020, published 2024).
Like-named read-outs stand apart in the source and are kept apart here.

What was measured:
Format in all cases: cell-based, human
[1] = system: IL-10-induced JAK1/TYK2 signal pathway; assay: IL-10-induced JAK1/TYK2 signal pathway STAT3-Luc reporter gene assay in U2OS cells; details: Homo sapiens, U2OS cells, STAT3-Luc reporter, IL-10 10 ng/mL, read-out: Half inhibition dose (IC50) on IL-10-induced JAK1/TYK2 signal pathway
From the text: Cytokine IL-10 is one of the main members of IL-10 family. The receptor that cytokine IL-10 binds to consists of two kinds of subunits, i.e., IL-10R1 and IL-10R2, which respectively couple with JAK1 and TYK2. After the coupling of IL-10 with its receptor, interaction of phosphorylation occurs between JAK1 and TYK2 to form STAT3 docking site for phosphorylation of STAT3. The phosphorylated STAT3 enters the nucleus and drives the transcription and expression of downstream genes.
The reporter gene plasmid STAT3-Luc Reporter used in the present invention has luciferase expression sequence as the reporter gene, upstream of which is a promoter sequence containing multiple STAT3 binding sites. When phosphorylated STAT3 induced by IL-10 signal pathway binds to the promoter of STAT3-Luc Reporter plasmid, luciferase is transcribed and expressed. The excitation fluorescence catalyzed by Luciferase can be detected after the addition of […] substrate, whose intensity can quantitively reflect the activation level of the signal pathway.
Human osteosarcoma cell line U20S was commercially available from American Type Culture Collection (ATCC), and relevant culture conditions referred to those from ATCC. It was known that such cell line could express IL-10R2, JAK1, TYK2 and STAT3, therefore, by exogenous expression of IL-10R1 gene, a complete IL-10 signal pathway could be established. The human IL-10R1 subunit overexpression plasmid pCMV3-IL10RA-EGFP was constructed by Shanghai Genechem Co., Ltd., and capable of simultaneously expressing enhanced green fluorescent protein. In the subsequent detection and calculation, the signal of green fluorescent protein in the tested sample was used as a reference for transfection efficiency calibration of the luciferase reporter gene signal. Reporter plasmid STAT3-Luc Reporter was commercially available from Ji Man Biotech (Shanghai) Co., Ltd.
X-tremeGENE 9 DNA Transfection Reagent (Roche) was used for the transfection of plasmid DNA into cells, Cell Culture Lysis 5× reagent (Promega) and Luciferase Assay System (Promega) were used in cell lysate preparation and enzyme-substrate reaction for luciferase reporter gene detection. Green fluorescent protein signal and luciferase reporter gene signal were both detected by Tecan Spark™ 10M multimode microplate reader. The inhibition rate of the tested compound on the IL-10 signal pathway reporter gene signal and the half inhibition dose IC50 were both calculated using Microsoft Excel and GraphPad Prism 7.00 software.
U2OS cell line was inoculated in 96-well plate with flat bottom at 5000 cells per well, and cultured overnight at 37° C. and 5% CO2 followed by plasmid transfection. Following the instructions and using X-tremeGENE 9 DNA Transfection Reagent, pCMV3-IL10RA-EGFP and STAT3-Luc Reporter plasmids were co-transfected into the inoculated U2OS cells. After 24 hours of transfection, the tested compound was added respectively for a final concentration of 0, 0.1, 0.3, 1, 3, 10, 30, 100, or 300 nM. After 6 hours of culture at 37° C. and 5% CO2, IL-10 cytokine (Human IL-10 PEPROTECH 200-10-10UG) was added to each well for a final concentration of 10 ng/mL, the well in which neither compound nor cytokine was added was designated as 0% control well. The culture was continued for 24 hours before testing.
Cell lysate was prepared by using Cell Culture Lysis reagent and transferred to 96-well plate with half-well clear bottom. The green fluorescent protein signal value was detected at Ex485/Em520 using Tecan microplate reader, and recorded. After adding to each well the luciferase substrate from Luciferase Assay System, the signal value of luciferase-substrate reaction was immediately detected at 560 nm using Tecan microplate reader, and recorded.
Using Microsoft Excel software, the signal value of luciferase-substrate reaction of each well was calculated and calibrated based on the signal value of green fluorescent protein of each well. […]

[2] = system: EPO-induced JAK2 signal pathway; assay: EPO-induced proliferation of UT-7 cells (JAK2 signal); details: Homo sapiens, UT7; UT-7 cell proliferation, EPO 10 ng/mL, 72 hours; read-out: Inhibition activity IC50 on EPO-induced JAK2 signal pathway
Outline: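 UT-7 cells (15000/well) stimulated with 10 ng/mL human recombinant EPO plus compound at final 0, 100, 1000 or 10000 nM, 72 h at 37° C., 5% CO2. Proliferation by alamarBlue fluorescence (Ex530/Em590); inhibition normalised to no-cytokine/no-compound (0) and EPO-only (100) wells, […] derived from dose-inhibition.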

[3] = system: IL-2-induced JAK1/JAK3 signal pathway; assay: IL-2-induced proliferation of KHYG-1 cells (JAK1/JAK3 signal); details: Homo sapiens, read-out: Inhibition activity IC50 on IL-2-induced JAK1/JAK3 signal pathway
Outline: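 KHYG-1 NK lymphoma cells were cultured with IL-2 and test compound at various doses for 72 h at 37 °C and 5% CO2, and proliferation was read with alamarBlue fluorescence. Inhibition was normalized to wells without compound or cytokine (0%) and IL-2 wells without compound (100%), and C50 was derived from the dose-inhibition data.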

[4] = KHYG-1 cell proliferation, IL-2 10 ng/mL, 72 hours

| IC50 ([1]; U2OS) [nM] | SMILES | IC50 [2] [µM] | IC50 [3, 4] [µM] | IC50 [1] [nM] | IC50 ([3]; KHYG-1, 72 h) [µM] |
| --- | --- | --- | --- | --- | --- |
| 1.81 | CONC(=O)c1cnc(Nc2cccc(F)n2)cc1Nc1ccc(C)cc1N(C)S(C)(=O)=O [Example 106, 6-((6-fluoropyridin-2-yl)amino)-N-methoxy-4-((4-methyl-2-(N-methylmethanesulfonamido)phenyl)amino)nicotinamide] | > 10 | > 10 | – | – |
| 1.87 | CONC(=O)c1cnc(Nc2ccc(OC)cn2)cc1Nc1ccc(C)cc1N(C)S(C)(=O)=O [Example 108] | > 10 | > 10 | – | – |
| 0.733 | CONC(=O)c1cnc(Nc2cccc(F)n2)cc1Nc1ccc(C)nc1N(C)S(C)(=O)=O [Example 109, 6-((6-fluoropyridin-2-yl)amino)-N-methoxy-4-((6-methyl-2-(N-methylmethanesulfonamido)pyridin-3-yl)amino)nicotinamide] | > 10 | > 10 | – | – |
| 1.51 | CONC(=O)c1cnc(Nc2cc(C)c(F)cn2)cc1Nc1ccc(C2CC2)cc1N(C)S(C)(=O)=O [Example 110] | > 10 | > 10 | – | – |
| 1.09 | CONC(=O)c1cnc(Nc2ccc(C#N)cn2)cc1Nc1ccc(C2CC2)cc1N(C)S(C)(=O)=O [Example 111, 4-((4-cyclopropyl-2-(N-methylmethanesulfonamido)phenyl)amino)-6-((5-cyanopyridin-2-yl)amino)-N-methoxy nicotinamide] | > 10 | > 10 | – | – |
| 0.711 | CONC(=O)c1cnc(Nc2cc(C)nc(C)n2)cc1Nc1ccc(C2CC2)cc1N(C)S(C)(=O)=O [Example 112] | > 10 | > 10 | – | – |
| 0.414 | CCONC(=O)c1cnc(Nc2ccc(OC)cc2)cc1Nc1ccc(Cl)cc1N(C)S(C)(=O)=O [Example 113, 4-((4-chloro-2-(N-methylmethanesulfonamido)phenyl)amino)-N-ethoxy-6-((4-methoxyphenyl)amino)nicotinamide] | > 10 | > 10 | – | – |
| 0.32 | CCONC(=O)c1cnc(Nc2ccc(C#N)cn2)cc1Nc1ccc(Cl)cc1N(C)S(C)(=O)=O [Example 114, 4-((4-chloro-2-(N-methylmethanesulfonamido)phenyl)amino)-N-ethoxy-6-((5-cyanopyridin-2-yl)amino)nicotinamide] | > 10 | > 10 | – | – |
| – | CCONC(=O)c1cnc(Nc2cccc(F)n2)cc1Nc1ccccc1NS(=O)(=O)C1CC1 [Example 116, 4-((2-(cyclopropylsulfonamido)phenyl)amino)-N-ethoxy-6-((6-fluoropyridin-2-yl)amino)nicotinamide] | > 10 | – | 0.471 | > 10 |
| 1.28 | Cc1cc(Nc2cc(Nc3ccc(C4CC4)cc3N(C)S(C)(=O)=O)c(C(=O)NOCC(F)(F)F)cn2)nc(C)n1 [Example 118] | > 10 | > 10 | – | – |
| 1.53 | CN(c1cc(C2CC2)ccc1Nc1cc(Nc2cccc(F)n2)ncc1C(=O)NOCC(F)(F)F)S(C)(=O)=O [Example 119, 4-((4-cyclopropyl-2-(N-methylmethanesulfonamido)phenyl)amino)-6-((6-fluoropyridin-2-yl)amino)-N-(2,2,2-trifluoroethoxy)nicotinamide] | > 10 | > 10 | – | – |
| 0.946 | CCONC(=O)c1cnc(Nc2cc(C)c(F)cn2)cc1Nc1ccc(C2CC2)cc1N(C)S(C)(=O)=O [Example 125, 4-((4-cyclopropyl-2-(N-methylmethanesulfonamido)phenyl)amino)-N-ethoxy-6-((5-fluoro-4-methylpyridin-2-yl)amino)nicotinamide] | > 10 | > 10 | – | – |
| 0.702 | CCONC(=O)c1cnc(Nc2ccc(C#N)cn2)cc1Nc1ccc(C2CC2)cc1N(C)S(C)(=O)=O [Example 126, 6-((5-cyanopyridin-2-yl)amino)-4-((4-cyclopropyl-2-(N-methylmethanesulfonamido)phenyl)amino)-N-ethoxy nicotinamide] | > 10 | > 10 | – | – |
| 0.776 | C#Cc1ccc(Nc2cc(Nc3cc(C)nc(C)n3)ncc2C(=O)NOCC)c(N(C)S(C)(=O)=O)c1 [Example 127, 6-((2,6-dimethylpyrimidin-4-yl)amino)-N-ethoxy-4-((4-ethynyl-2-(N-methylmethanesulfonamido)phenyl)amino)nicotinamide] | > 10 | > 10 | – | – |
| 0.698 | CCONC(=O)c1cnc(Nc2ccc(F)cn2)cc1Nc1ccc(Cl)cc1N(C)S(C)(=O)=O [Example 128, 4-((4-chloro-2-(N-methylmethanesulfonamido)phenyl)amino)-N-ethoxy-6-((5-fluoropyridin-2-yl)amino)nicotinamide] | > 10 | > 10 | – | – |
| 1.08 | CCONC(=O)c1cnc(Nc2cccc(F)n2)cc1Nc1ccc(Cl)cc1N(C)S(C)(=O)=O [Example 129, 4-((4-chloro-2-(N-methylmethanesulfonamido)phenyl)amino)-N-ethoxy-6-((6-fluoropyridin-2-yl)amino)nicotinamide] | > 10 | > 10 | – | – |
| 0.802 | CCONC(=O)c1cnc(Nc2ccc(F)cn2)cc1Nc1ccc(N2CCOCC2)cc1N(C)S(C)(=O)=O [Example 130] | > 10 | > 10 | – | – |
| 0.572 | CCONC(=O)c1cnc(Nc2cc(C)nc(C)n2)cc1Nc1ccc(OC)cc1N(C)S(C)(=O)=O [Example 131, 6-((2,6-dimethylpyrimidin-4-yl)amino)-N-ethoxy-4-((4-methoxy-2-(N-methylmethanesulfonamido)phenyl)amino)nicotinamide] | > 10 | > 10 | – | – |
| 0.977 | CCONC(=O)c1cnc(Nc2cc(C)nc(C)n2)cc1Nc1ccc(N2CCCCC2)cc1N(C)S(C)(=O)=O [Example 132, 6-((2,6-dimethylpyrimidin-4-yl)amino)-N-ethoxy-4-((2-(N-methylmethanesulfonamido)-4-(piperidin-1-yl)phenyl)amino)nicotinamide] | > 10 | > 10 | – | – |
| 0.618 | CCONC(=O)c1cnc(Nc2cc(C)nc(C)n2)cc1Nc1ccc(C)cc1N(C)S(C)(=O)=O [Example 133, 6-((2,6-dimethylpyrimidin-4-yl)amino)-N-ethoxy-4-((4-methyl-2-(N-methylmethanesulfonamido)phenyl)amino)nicotinamide] | > 10 | > 10 | – | – |
